From publication PMC4066871 (Bioorganic & medicinal chemistry letters, 2013)

Legend:
other K+ channels = settings: cited from earlier work
GIRK2/3 = settings: cited from earlier work
GIRK1/GIRK4 [1] = biological target: T1, GIRK1/GIRK4 (Homo sapiens, UniProt P48544+P48549); settings: GIRK1/2 activator vs GIRK1/4; cited from earlier work
T1 sequence (P48549 1-501): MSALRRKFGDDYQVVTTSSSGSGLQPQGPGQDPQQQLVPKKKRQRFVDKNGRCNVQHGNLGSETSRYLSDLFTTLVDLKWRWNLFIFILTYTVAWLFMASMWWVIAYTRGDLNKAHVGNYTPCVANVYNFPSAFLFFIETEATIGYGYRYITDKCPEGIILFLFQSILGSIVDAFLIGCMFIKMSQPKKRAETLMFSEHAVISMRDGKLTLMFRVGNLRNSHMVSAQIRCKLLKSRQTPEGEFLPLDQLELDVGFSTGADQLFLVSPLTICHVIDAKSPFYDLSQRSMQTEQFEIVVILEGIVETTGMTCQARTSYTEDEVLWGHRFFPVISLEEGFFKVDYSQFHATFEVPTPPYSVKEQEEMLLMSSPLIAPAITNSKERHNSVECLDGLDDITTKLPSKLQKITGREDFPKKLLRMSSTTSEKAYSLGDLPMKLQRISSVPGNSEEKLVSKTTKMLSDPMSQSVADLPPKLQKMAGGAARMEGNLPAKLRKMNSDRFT
T1 sequence (P48544 1-419): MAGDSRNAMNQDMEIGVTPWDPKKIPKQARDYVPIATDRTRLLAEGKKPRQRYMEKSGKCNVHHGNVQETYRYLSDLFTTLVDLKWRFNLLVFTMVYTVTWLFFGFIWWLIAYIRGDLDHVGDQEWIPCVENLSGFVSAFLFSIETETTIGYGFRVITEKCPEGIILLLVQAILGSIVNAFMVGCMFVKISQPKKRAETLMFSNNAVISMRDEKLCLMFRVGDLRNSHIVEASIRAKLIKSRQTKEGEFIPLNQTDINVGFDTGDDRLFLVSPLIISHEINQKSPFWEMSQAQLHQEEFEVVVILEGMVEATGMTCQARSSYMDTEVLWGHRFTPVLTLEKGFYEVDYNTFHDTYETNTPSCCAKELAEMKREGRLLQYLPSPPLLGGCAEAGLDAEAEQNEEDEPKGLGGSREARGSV

GIRK1/2 = settings: cited from earlier work
GIRK1/GIRK4 [2] = biological target: T1, GIRK1/GIRK4; experiment: GIRK1/4 thallium flux assay in stably transfected HEK-293 cells; assay type: cell-based
GIRK1/GIRK2 = biological target: T2, GIRK1/GIRK2 (Homo sapiens, UniProt P48051+P48549); experiment: GIRK1/2 thallium flux assay in stably transfected HEK-293 cells; assay type: cell-based
T2 sequence (P48549 1-501): T1 sequence (P48549 1-501)
T2 sequence (P48051 1-423): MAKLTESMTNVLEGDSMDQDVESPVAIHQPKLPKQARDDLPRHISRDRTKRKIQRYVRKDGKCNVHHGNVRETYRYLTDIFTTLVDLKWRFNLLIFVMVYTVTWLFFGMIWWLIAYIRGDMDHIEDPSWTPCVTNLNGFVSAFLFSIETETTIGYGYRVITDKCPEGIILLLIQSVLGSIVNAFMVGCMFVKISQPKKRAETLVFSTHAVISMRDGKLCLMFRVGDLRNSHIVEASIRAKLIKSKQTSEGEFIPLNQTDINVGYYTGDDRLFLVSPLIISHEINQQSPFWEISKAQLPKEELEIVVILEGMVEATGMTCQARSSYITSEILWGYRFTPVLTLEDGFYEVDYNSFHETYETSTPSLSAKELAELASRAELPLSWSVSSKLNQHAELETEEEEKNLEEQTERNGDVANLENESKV

GIRK = settings: cited from earlier work

SMILES	GIRK1/4 activity (in words) (GIRK1/GIRK4 [2])	GIRK1/2 activity (in words) (GIRK1/GIRK2)	further results
Cc1cc(NC(=O)Nc2ccc(F)c(F)c2)n(-c2ccccc2)n1 [Compd 2]	–	–	Activity on other K+ channels (in words) (other K+ channels): inactive; Activity on GIRK2/3 (in words) (GIRK2/3): inactive; Selectivity for GIRK1/2 vs GIRK1/4 (GIRK1/GIRK4 [1]): ~ 10 fold; CNS penetration (in words) (GIRK1/2): centrally penetrant; Anti-epileptic properties (in words) (GIRK1/2; mice, via GIRK1/2 activation): established anti-epileptic properties in mice
CN(C)S(=O)(=O)c1cccc(NC(=O)Cc2ccccc2Cl)c1 [Compd 3b]	maintained potency and efficacy	diminished potency and lost efficacy	–
CN(C)S(=O)(=O)c1cccc(NC(=O)Cc2ccc(Cl)cc2)c1 [Compd 3c]	diminution in potency	diminution in potency	–
Cc1ccc(NC(=O)Cc2ccc(F)cc2)cc1S(=O)(=O)N(C)C [Compd 3d]	diminution in potency	diminution in potency	–
CCO [ethanol]	–	–	Concentration known to activate GIRK (GIRK): hundreds of millimolar
C[C@@H]1O[C@@H](O[C@H]2[C@H](Oc3cc(O)c4c(c3)O[C@H](c3ccc(O)cc3)CC4=O)O[C@H](CO)[C@@H](O)[C@@H]2O)[C@H](O)[C@H](O)[C@H]1O [naringin]	–	–	EC50 (GIRK; read-out: GIRK activation EC50, reported value): > 100 µM

More lines, main results first:

GIRK1/4 activity (in words) (GIRK1/GIRK4 [2])	GIRK1/2 activity (in words) (GIRK1/GIRK2)	SMILES	further results
selective, partial GIRK1/4 activators	–	O=C(Cc1ccccc1Cl)Nc1cccc(Cl)c1 [Compd 8g]	–
selective, partial GIRK1/4 activators	–	O=C(Cc1ccccc1Cl)Nc1ccc(C(F)(F)F)cc1 [Compd 8h]	–
